Laboratory results from paper PMC3574231 (ACS chemical biology, 2012).

Assays:
[1] = Reversed-phase HPLC retention; type: physicochemical; details: chromatographic, C-18 column

cyclo[(pCAP)FΦRRRRQ] (head to tail) [cyclic pCAP]
Intracellular CAP fluorescence after pretreatment with 1 mM sodium pervanadate (MCF-7 and HEK293 cells): dramatically reduced

cyclo(FΦRRRRQ) [Peptide 11]
Retention time by reversed-phase HPLC (measure of overall hydrophobicity) [1]: virtually identical retention times
